Test results taken from US20140051696A1, “THERAPIES FOR TREATING CANCER” (GILEAD CALISTOGA LLC, priority 2012, published 2014).
“Also recorded” adds a separate entry of the source. Like-named read-outs stand apart in the source and are kept apart here.

Key:
[1] = test system: WSU-FSCCL resistant cells; experiment: AlamarBlue growth inhibition, WSU-FSCCL resistant cells; format: cell-based, human; conditions: 72 hr
Method: The WSU-FSCCL parental cells were, initially, responsive to treatment of Compound A (FIG. 10A). […] Such cells were cultured and referred to as WSU-FSCCL resistant cells. This reflects a commonly observed clinical situation that patients become resistance or no longer respond to the existing treatment. Both the parental and the resistant cells of WSU-FSCCL were used in this study. […] The […] cells were added with the compounds in the serial dilution and incubated at 37° C. for 72 hr, followed by the addition of 12.5 μL AlamarBlue (Invitrogen #DAL1100). Plates were then incubated at 37° C. for 4 hours. The change of color from uptake of the stains in the living cells was measured for absorbance. Fluorescence Ex530, Em590, Cutoff570 on Spectramax M5 (Molecular Dynamics) were determined.

[2] = Plasma pharmacokinetics in healthy human subjects, alone or in combination; conditions: for AUC / Cmax: human, Mean (% CV); for AUC: AUCtau
Method: On Day 1, PK samples were collected at pre-dose, 2, 4, 8, and 12 hours post dose. On Day 4, samples were collected relative to the AM dose of study drug(s) at the following time points: pre-dose, 1, 2, 2.5, 3, 4, 6, 8, 10, 12, 18, 24, 36, and 48 hours post dose. Trough PK samples were collected on Day 3 prior to dosing.

[3] = Safety and tolerability in healthy human subjects; conditions: for tolerability: over the dose range evaluated, healthy subjects
Description: The endpoints evaluated include AEs, physical examination and clinical laboratory test findings, 12-lead ECG abnormalities and interval measurements, and vitals signs measurements.
Safety data for each cohort was reviewed after the 10-day observation period following each 4 day treatment period. Subsequent treatments in each cohort were only initiated following post dose safety assessments.

[4] = test system: WSU-FSCCL parental cells; experiment: AlamarBlue growth inhibition, WSU-FSCCL parental cells; format: cell-based, human; conditions: initially, 72 hr
Method: The WSU-FSCCL parental cells were, initially, responsive to treatment of Compound A (FIG. 10A). […] Such cells were cultured and referred to as WSU-FSCCL resistant cells. This reflects a commonly observed clinical situation that patients become resistance or no longer respond to the existing treatment. Both the parental and the resistant cells of WSU-FSCCL were used in this study.
A 7× serial dilution of Compound A and Compound C from a stock of 10 mM (DMSO) was prepared using RPMI+10% FBS (270 μM). The WS-FSCCL cells were added with the compounds in the serial dilution and incubated at 37° C. for 72 hr, followed by the addition of 12.5 μL AlamarBlue (Invitrogen #DAL1100). Plates were then incubated at 37° C. for 4 hours.
The change of color from uptake of the stains in the living cells was measured for absorbance. Fluorescence Ex530, Em590, Cutoff570 on Spectramax M5 (Molecular Dynamics) were determined. To calculate the 50% inhibition of growth (GI50), the reading from the samples were compared to the controls (100% or 0% absorption).

[5] = test system: S6 phosphorylation in CLL cells; experiment: Flow cytometry phospho-S6 in CLL cells co-cultured with HS5 stromal cells; format: cell-based, human; conditions: CLL cells of 15 patients co-cultured with HS5 stromal cells
Description: (§1) Ficoll purified CLL cells obtained from 15 patients were co-cultured with HS5 stromal cells then treated with each compound alone or in combination. CLL cells were stained with anti-CD5-FITC and either anti-phospho-Akt S473 (Alexa Fluor 488), phospho-S6 or an […] control antibody (mouse IgG1-Alexa Fluor 488 conjugate, Cell Signaling) and analyzed by 2-color flow cytometry.

[6] = test system: CCL2, CCL3, and CCL4; experiment: Chemokine release ELISA, CLL patient samples in conditioned media; format: cell-based, human; conditions: patient samples cultured in conditioned media; alone and in combination
Method: (§3) In this Example, CLL patient samples were assessed for growth inhibition, chemokine release, and pathway activation status using a tetrazolium-based MTS assay, ELISA, and flow cytometry, respectively. Peripheral blood mononuclear cells (PBMCs) were isolated from primary patient samples using a Ficoll-Paque gradient. […] 5×10^5 primary cells were cultured in triplicate in HS-5 stromal cell conditioned media and growth inhibition was determined after 72 hours.

[7] = test system: AKT phosphorylation (S473) in CLL cells; experiment: Flow cytometry phospho-Akt in CLL cells co-cultured with HS5 stromal cells; format: cell-based, human; conditions: CLL cells of 15 patients co-cultured with HS5 stromal cells
Description: as §1

[8] = test system: AKT phosphorylation (S473) in Ramos cells; experiment: Immunoblot phospho-Akt in Ramos cells after anti-IgM BCR stimulation; format: cell-based, human; conditions: 1 uM each, IgM mediated BCR stimulation
Method: (§2) 5×10^6 Ramos (a Burkitt's cell line with intact BCR) were plated and treated with 1 uM of Compound A, 1 uM of Compound B, alone or in combination for 25 hours. Twenty μg Goat F(ab′)2 anti-human IgM (Invitrogen) was added to stimulate the BCR for 30 minutes. Protein were isolated and analyzed using immune-blotting with phospho-Akt (S473), phospho-Erk (T202/Y204), and phospho-S6.

[9] = test system: primary CLL cells; experiment: MTS cell viability assay of primary CLL cells in HS-5 conditioned media; conditions: Homo sapiens
Method: as §3
Peripheral blood (PB) or bone marrow (BM) was collected from 14 CLL patients with untreated, relapsed, or refractory diseases. Mononuclear cells were isolated using a Ficoll-Paque gradient and were plated in triplicate into 96-well containing HS-5 conditioned media plus equimolar concentrations of Compound A and Compound B (10 μM to 0.61 nM). After 72 hours, viability was determined by MTS assay (CellTiter 96, Promega).

[10] = test system: ERK phosphorylation (T202/Y204) in Ramos cells; experiment: Immunoblot phospho-Erk in Ramos cells after anti-IgM BCR stimulation; format: cell-based, human; conditions: 1 uM each, IgM mediated BCR stimulation
Method: as §2

[11] = test system: recurrent CLL; conditions: cited from earlier work; for median progression-free survival (PFS): patients with recurrent CLL
[12] = Compound A analyte, Compound A 150 mg + Compound B 600 mg vs Compound A 150 mg
[13] = Compound A analyte, Compound A 100 + Compound B 200 or 600 mg vs Compound A 100 mg
[14] = plasma, oral, 100 mg, Compound A analyte, Compound A 100 mg BID alone, fed (N = 16)
[15] = plasma, oral, 150 mg, Compound A analyte, Compound A 150 mg BID alone, fed (N = 7)
[16] = plasma, oral, Compound A analyte, Compound A 150 mg + Compound B 600 mg BID, fed (N = 6)
[17] = plasma, oral, Compound A analyte, Compound A 100 + Compound B 200 or 600 mg BID, fed (N = 16)
[18] = Compound B analyte, Compound B 200 mg + Compound A 100 mg vs Compound B 200 mg
[19] = Compound B analyte, Compound B 600 mg + Compound A 100/150 mg vs Compound B 600 mg
[20] = in vivo, 200 mg, Compound B analyte, Compound B 200 mg BID alone, fed (N = 8)
[21] = in vivo, 600 mg, Compound B analyte, Compound B 600 mg BID alone, fed (N = 16)
[22] = in vivo, Compound B analyte, Compound B 200 mg + Compound A 100 mg BID, fed (N = 8)
[23] = in vivo, Compound B analyte, Compound B 600 mg + Compound A 100/150 mg BID, fed (N = 14)

In the case of `CC[C@H](Nc1ncnc2[nH]cnc12)c1nc2cccc(F)c2c(=O)n1-c1ccccc1` [Compound A, (S)-2-(1-(9H-purin-6-ylamino)propyl)-5-fluoro-3-phenylquinazolin-4(3H)-one], the “cell viability / sensitivity of WSU-FSCCL resistant cells” value [1] is reported as “became resistant to the treatment”, the “Ctau, Mean (% CV)” value ([2]; Compound A analyte, Compound A 100 mg BID alone, fed (N = 16)) is reported as 127 (44) ng/ml and the “Ctau, Mean (% CV)” value ([2]; Compound A analyte, Compound A 150 mg + Compound B 600 mg BID, fed (N = 6)) is reported as 411 (29) ng/ml. The “AUCtau, % Geometric Least Squares Means Ratio (90% CI), Combination vs. Alone” value [2, 12] was 1.11 (1.00, 1.24) %, the “Cmax, % Geometric Least Squares Means Ratio (90% CI), Combination vs. Alone” value [2, 12] was 1.06 (0.93, 1.21) % and the “Ctau, % Geometric Least Squares Means Ratio (90% CI), Combination vs. Alone” value [2, 12] was 1.23 (1.03, 1.47) %. The “Ctau, Mean (% CV)” value ([2]; Compound A analyte, Compound A 150 mg BID alone, fed (N = 7)) was 320 (43) ng/ml, the “Ctau, Mean (% CV)” value ([2]; Compound A analyte, Compound A 100 + Compound B 200 or 600 mg BID, fed (N = 16)) was 170 (50) ng/ml and the “AUCtau, % Geometric Least Squares Means Ratio (90% CI), Combination vs. Alone” value [2, 13] was 1.17 (1.13, 1.22) %. For the same molecule, the “Cmax, % Geometric Least Squares Means Ratio (90% CI), Combination vs. Alone” value [2, 13] was 1.13 (1.07, 1.20) %, the “Ctau, % Geometric Least Squares Means Ratio (90% CI), Combination vs. Alone” value [2, 13] was 1.33 (1.20, 1.48) % and the “exposure of Compound A, combination vs alone” value ([2]; healthy subjects) was “minor variations”. The AUC [2, 14] was 8070 ng·h/mL, the Cmax [2, 14] was 1660 ng/mL and the AUC [2, 15] was 13800 ng·h/mL. It also gave a Cmax [2, 15] of 2680 ng/mL, an AUC [2, 16] of 15800 ng·h/mL and an AUC [2, 17] of 9510 ng·h/mL. The Cmax [2, 16] was 2870 ng/mL, the Cmax [2, 17] was 1880 ng/mL and the “adverse event leading to discontinuation of treatment” value ([3]; one individual, during Compound A 150 mg dosing) was “Grade 1 ALT/AST elevation”. For the same molecule, the tolerability [3] was “generally well-tolerated”, the “response of WSU-FSCCL parental cells to treatment” value [4] was “responsive” and the “S6 phosphorylation in CLL cells” value [5] was “inhibited or decreased”. The “production of CCL2, CCL3, and CCL4 by CLL cells” value [6] was “reduced”, the “AKT phosphorylation in CLL cells” value [7] was “inhibited or decreased” and the “AKT phosphorylation in Ramos cells” value [8] was “inhibited or decreased”.
In the case of `c1cn2cc(-c3ccc4cn[nH]c4c3)nc(Nc3ccc(N4CCOCC4)cc3)c2n1` [Compound B, 6-(1H-indazol-6-yl)-N-(4-morpholinophenyl)imidazo[1,2-a]pyrazin-8-amine], the “Ctau, Mean (% CV)” value ([2]; Compound B analyte, Compound B 200 mg + Compound A 100 mg BID, fed (N = 8)) is reported as 380 (62) ng/ml, the “AUCtau, % Geometric Least Squares Means Ratio (90% CI), Combination vs. Alone” value [2, 18] is reported as 1.64 (1.41, 1.91) % and the “Cmax, % Geometric Least Squares Means Ratio (90% CI), Combination vs. Alone” value [2, 18] is reported as 1.50 (1.24, 1.80) %. The “Ctau, % Geometric Least Squares Means Ratio (90% CI), Combination vs. Alone” value [2, 18] was 1.96 (1.61, 2.38) %, the “Ctau, Mean (% CV)” value ([2]; Compound B analyte, Compound B 200 mg BID alone, fed (N = 8)) was 201 (661) ng/ml and the “Ctau, Mean (% CV)” value ([2]; Compound B analyte, Compound B 600 mg + Compound A 100/150 mg BID, fed (N = 14)) was 1120 (72) ng/ml. The “AUCtau, % Geometric Least Squares Means Ratio (90% CI), Combination vs. Alone” value [2, 19] was 1.51 (1.30, 1.75) %, the “Cmax, % Geometric Least Squares Means Ratio (90% CI), Combination vs. Alone” value [2, 19] was 1.38 (1.20, 1.59) % and the “Ctau, % Geometric Least Squares Means Ratio (90% CI), Combination vs. Alone” value [2, 19] was 1.74 (1.48, 2.03) %. The “Ctau, Mean (% CV)” value ([2]; Compound B analyte, Compound B 600 mg BID alone, fed (N = 16)) was 832 (82) ng/ml, the AUC [2, 20] was 4150 ng·h/mL and the Cmax [2, 20] was 618 ng/mL. It also gave an AUC [2, 21] of 12700 ng·h/mL, a Cmax [2, 21] of 1570 ng/mL and an AUC [2, 22] of 6750 ng·h/mL. For the same molecule, the AUC [2, 23] was 16000 ng·h/mL, the Cmax [2, 22] was 915 ng/mL and the Cmax [2, 23] was 1900 ng/mL. For the same molecule, the IC50 ([9]; 72 h, read-out: median cell viability IC50) was 3.7 µM, the IC50 ([9]; read-out: cell viability IC50 obtained in 7 samples (50%)) was no more than 2 µM and the tolerability [3] was “generally well-tolerated”. For the same molecule, the “ERK phosphorylation in Ramos cells” value [10] was “inhibit or reduced; also recorded: near complete inhibition or reduction”, the “S6 phosphorylation in CLL cells” value [5] was “inhibited or decreased” and the “production of CCL2, CCL3, and CCL4 by CLL cells” value [6] was “reduced”. For the same molecule, the “AKT phosphorylation in CLL cells” value [7] was “inhibited or decreased” and the “AKT phosphorylation in Ramos cells” value [8] was “inhibited or decreased”.
In the case of alemtuzumab, the “median progression-free survival (PFS)” value [11] is listed as 4.7 months.
For ofatumumab, the “median progression-free survival (PFS)” value [11] is given as 5.8 months.
For rituximab, the “median PFS” value ([11]; addition of high-dose methylprednisone to rituximab) is listed as 12 months.
